Measurements: patent publication US20230192661A1, “1, 4, 5, 6-TETRAHYDROPYRIMIDINE-2-AMINE DERIVATIVE” (UBE Corporation, priority 2020, published 2023)

Assays:
αvβ1 = target: T1, αvβ1 (UniProt G3HZ55+P06756); assay: αvβ1 cell adhesion inhibition test (αv-transfected CHO cells on human fibronectin); assay type: cell-based; conditions: human fibronectin coating, 1 mM MnCl2, 1 hour, read-out: IC50 (rate of inhibition of cell adhesion, αvβ1)
T1 construct: expressed in transfected cells; host or cells: CHO cells deficient in α5 gene, transfected with αv gene
T1 sequence (P06756 31-889 limits assumed): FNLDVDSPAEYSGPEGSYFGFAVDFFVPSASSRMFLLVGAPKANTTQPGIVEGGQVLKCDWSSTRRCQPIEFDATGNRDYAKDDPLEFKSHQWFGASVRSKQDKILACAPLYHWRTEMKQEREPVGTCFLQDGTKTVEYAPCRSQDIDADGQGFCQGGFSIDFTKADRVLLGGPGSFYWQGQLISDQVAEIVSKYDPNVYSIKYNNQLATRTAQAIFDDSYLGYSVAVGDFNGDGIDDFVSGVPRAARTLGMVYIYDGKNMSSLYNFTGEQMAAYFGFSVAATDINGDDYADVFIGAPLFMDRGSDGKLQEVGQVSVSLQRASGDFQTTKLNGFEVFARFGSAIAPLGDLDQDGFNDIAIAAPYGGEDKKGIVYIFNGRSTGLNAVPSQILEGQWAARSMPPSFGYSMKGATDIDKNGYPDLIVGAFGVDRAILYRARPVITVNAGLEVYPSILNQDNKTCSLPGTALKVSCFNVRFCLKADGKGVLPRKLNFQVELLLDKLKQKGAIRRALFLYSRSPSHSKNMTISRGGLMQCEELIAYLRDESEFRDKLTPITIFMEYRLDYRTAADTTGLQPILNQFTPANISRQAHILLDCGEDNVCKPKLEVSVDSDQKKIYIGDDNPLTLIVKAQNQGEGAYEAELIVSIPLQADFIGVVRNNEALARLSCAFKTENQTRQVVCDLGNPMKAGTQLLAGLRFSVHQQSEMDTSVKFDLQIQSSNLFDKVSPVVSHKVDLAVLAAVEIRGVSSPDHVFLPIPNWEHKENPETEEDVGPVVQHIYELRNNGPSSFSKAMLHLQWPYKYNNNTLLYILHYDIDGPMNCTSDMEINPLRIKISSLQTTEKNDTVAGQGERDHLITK
T1 sequence (P06756 891-1048 limits assumed): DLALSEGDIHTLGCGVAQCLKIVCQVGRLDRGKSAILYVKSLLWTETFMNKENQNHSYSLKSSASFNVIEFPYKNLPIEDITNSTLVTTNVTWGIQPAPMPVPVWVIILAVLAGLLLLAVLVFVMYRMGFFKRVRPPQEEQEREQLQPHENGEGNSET
T1 sequence (G3HZ55 21-798): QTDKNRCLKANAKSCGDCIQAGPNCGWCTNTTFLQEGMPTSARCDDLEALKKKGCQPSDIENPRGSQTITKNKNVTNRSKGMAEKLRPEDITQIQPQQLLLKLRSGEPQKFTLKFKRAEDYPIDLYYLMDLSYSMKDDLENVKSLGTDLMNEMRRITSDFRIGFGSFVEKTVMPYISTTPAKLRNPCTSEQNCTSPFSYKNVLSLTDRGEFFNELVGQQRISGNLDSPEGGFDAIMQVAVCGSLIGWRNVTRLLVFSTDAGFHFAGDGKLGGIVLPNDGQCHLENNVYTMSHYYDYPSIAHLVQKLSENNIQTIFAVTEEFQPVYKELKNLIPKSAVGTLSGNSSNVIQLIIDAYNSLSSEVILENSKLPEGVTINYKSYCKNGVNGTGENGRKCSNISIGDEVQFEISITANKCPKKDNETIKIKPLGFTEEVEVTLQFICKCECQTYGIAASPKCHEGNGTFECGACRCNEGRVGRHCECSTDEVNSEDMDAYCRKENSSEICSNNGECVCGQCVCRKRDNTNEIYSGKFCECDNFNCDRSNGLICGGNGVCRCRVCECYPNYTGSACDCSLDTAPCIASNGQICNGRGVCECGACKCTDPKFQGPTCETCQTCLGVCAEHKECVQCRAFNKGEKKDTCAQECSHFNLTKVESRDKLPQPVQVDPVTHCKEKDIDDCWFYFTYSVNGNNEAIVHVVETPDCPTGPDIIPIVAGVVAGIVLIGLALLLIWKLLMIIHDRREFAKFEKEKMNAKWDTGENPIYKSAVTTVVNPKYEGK
Method: Test Example 1 was performed by partially modifying the method of Reed et al. (Sci Transl Med., 7 (288), 288ra79, 2015).
Human fibronectin (manufactured by Sigma-Aldrich Co. LLC, F0895) was prepared at 1.25 μg/mL with phosphate buffered saline (PBS), dispensed at 100 μL/well to a 96-well plate, and left standing overnight. The plate was washed with Hanks' balanced salt solution (HBSS), then subjected to blocking treatment with Dulbecco's modified Eagle medium (DMEM) containing 1% bovine serum-derived albumin (BSA) (FUJIFILM Wako Pure Chemical Corp., for cell culture, 017-22231), and used as a coated plate in the adhesion test.
αv-transfected cells (CHO cells deficient in α5 gene and transfected with αv gene) cultured in Ham's F-12 medium (FUJIFILM Wako Pure Chemical Corp., 087-08335) containing 10% fetal bovine serum (FBS), 1% penicillin/streptomycin/amphotericin B (manufactured by Thermo Fisher Scientific, Inc., 15240), 1 mM GlutaMAX Supplement (manufactured by Thermo Fisher Scientific, Inc., 35050), and 400 μg/mL hygromycin B (FUJIFILM Wako Pure Chemical Corp., 080-07683) were recovered and suspended in DMEM containing 1 mM MnCl2 (manufactured by Sigma-Aldrich Co. LLC, M1787) to prepare a cell suspension. A test compound dissolved in DMSO was added thereto.
The cell suspension of 1×10^6 cells/mL containing the test compound was added at 100 μL/well to the coated plate and left standing for 1 hour in a 5% CO2 incubator (37° C.). One hour later, the supernatant was removed, and the plate was washed with HBSS. The cells that adhered to each well in the plate were stained with crystal violet, and the cells were lysed, followed by absorbance measurement. Inhibition without substrate coating was defined as 100% inhibition, and inhibition when DMSO was added instead of the test compound was defined as 0% inhibition. The rate of inhibition of cell adhesion by the test compound was calculated according to the following expression.
Rate of inhibition of cell adhesion (%)=[1−{(Absorbance in the case of adding the test compound)−(Absorbance without substrate coating)}/{(Absorbance in the case of adding DMSO)−(Absorbance without substrate coating)}]×100
An IC50 value was calculated from the rate of inhibition of cell adhesion by the test compound. A: IC50<3 nM, B: 3 nM≤IC50<10 nM, C: 10 nM≤IC50<30 nM, D: 30 nM≤IC50<100 nM, or E: IC50≥100 nM.

[1] = test system: Human hepatic stellate cells; assay: Active human hepatic stellate cell dedifferentiation test (decrease in ACTA2 mRNA expression); assay type: cell-based; conditions: 3 days differentiation then 2 days with compound, read-out: IC50 (rate of decrease in ACTA2 mRNA expression)
Method: Human hepatic stellate cells (manufactured by ScienCell Research Laboratories, Inc., 5300) were suspended in DMEM containing 10% FBS and […] penicillin/streptomycin/amphotericin B to prepare a cell suspension of 0.5×10^5 cells/mL, which was regarded as cells at the start of differentiation. The cells at the start of differentiation were dispensed at 1 mL/well to a 12-well plate and cultured, for differentiation, for 3 days in a 5% CO2 incubator (37° C.).
The culture solution in each well was removed, and DMEM containing 10% FBS and 1% penicillin/streptomycin/amphotericin B supplemented with a test compound dissolved in DMSO (final DMSO concentration: 0.1%) was added at 1 mL/well. The resultant was further cultured for 2 days in a 5% CO2 incubator (37° C.). In Test Example 4, the same reagents as in Test Example 1 were used unless otherwise specified.
RNA in the cultured cells was extracted using NucleoSpin® RNA (manufactured by Takara Bio Inc., U0955C), and cDNA was further synthesized from the extracted RNA using Prime Script™ RT reagent Kit with gDNA Eraser (manufactured by Takara Bio Inc., RR047A). Real time PCR was performed using the synthesized cDNA, various primers and TB Green® Premix Ex Taq™ II (manufactured by Takara Bio Inc., RR820A) and using PCR Thermal Cycler Dice Real Time (manufactured by Takara Bio Inc., System Code TP910, Model Code TP900). The primers used were actin alpha 2, smooth muscle (ACTA2) primer (manufactured by Takara Bio Inc., HA136273) and glyceraldehyde-3-phosphate dehydrogenase (GAPDH) primer (manufactured by Takara Bio Inc., HA067812).
The amplification curve of PCR was analyzed by the comparative Ct method. The expression level of ACTA2 mRNA was corrected with the expression level of GAPDH mRNA. An ACTA2 mRNA expression level when DMSO was added instead of the test compound was defined as 100%, and an ACTA2 mRNA expression level in the cells at the start of differentiation was defined as 0%. The rate of decrease in ACTA2 mRNA expression by the test compound was calculated according to the following expression.
Rate of decrease in ACTA2 mRNA expression (%)=[1−{(ACTA2 mRNA expression level in the case of adding the test compound)−(ACTA2 mRNA expression level in the cells at the start of differentiation)}/{(ACTA2 mRNA expression level in the case of adding DMSO)−(ACTA2 mRNA expression level in the cells at the start of differentiation)}]×100
An IC50 value was calculated from the rate of decrease in ACTA2 mRNA expression by the test compound. A: IC50<10 nM, B: 10 nM≤IC50<50 nM, C: 50 nM≤IC50<100 nM, or D: IC50≥100 nM.

Row | Structure (SMILES) | IC50 (αvβ1) [nM] | IC50 [1] [nM]
1 | O=C(O)C[C@H](NC(=O)CNC(=O)c1cc(NC2=NCC(F)CN2)c2cn[nH]c2c1)c1cc(Cl)cc(I)c1 (stereo partly drawn) [Example 21-(b), (3S)-3-(3-chloro-5-iodophenyl)-3-(2-(4-((5-fluoro-1,4,5,6-tetrahydropyrimidin-2-yl)amino)-1H-indazole-6-carboxamido)acetamido)propanoic acid] | < 3 | 10 to 50
2 | O=C(O)C[C@H](NC(=O)CNC(=O)c1cc(NC2=NCC(F)CN2)c2cn[nH]c2c1)c1cc(OC(F)F)cc(C(F)(F)F)c1 (stereo partly drawn) [Example 24-(b), (3S)-3-(3-(difluoromethoxy)-5-(trifluoromethyl)phenyl)-3-(2-(4-((5-fluoro-1,4,5,6-tetrahydropyrimidin-2-yl)amino)-1H-indazole-6-carboxamido)acetamido)propanoic acid] | < 3 | < 10
3 | O=C(O)C[C@H](NC(=O)CNC(=O)c1cc(NC2=NCC(F)CN2)c2cn[nH]c2c1)c1cc(Cl)cc(OC(F)F)c1 (stereo partly drawn) [Example 25-(b), (3S)-3-(3-chloro-5-(difluoromethoxy)phenyl)-3-(2-(4-((5-fluoro-1,4,5,6-tetrahydropyrimidin-2-yl)amino)-1H-indazole-6-carboxamido)acetamido)propanoic acid] | < 3 | < 10
4 | O=C(O)C[C@H](NC(=O)CNC(=O)c1cc(NC2=NCC(F)CN2)c2cn[nH]c2c1)c1cc(Br)cc(OC(F)F)c1 (stereo partly drawn) [Example 26-(b), (3S)-3-(3-bromo-5-(difluoromethoxy)phenyl)-3-(2-(4-((5-fluoro-1,4,5,6-tetrahydropyrimidin-2-yl)amino)-1H-indazole-6-carboxamido)acetamido)propanoic acid] | < 3 | < 10
5 | O=C(O)C[C@H](NC(=O)CNC(=O)c1cc(NC2=NCC(F)CN2)c2cn[nH]c2c1)c1cc(OC(F)F)ccc1F (stereo partly drawn) [Example 28-(b), (3S)-3-(5-(difluoromethoxy)-2-fluorophenyl)-3-(2-(4-((5-fluoro-1,4,5,6-tetrahydropyrimidin-2-yl)amino)-1H-indazole-6-carboxamido)acetamido)propanoic acid] | < 3 | 10 to 50
6 | O=C(O)C[C@H](NC(=O)CNC(=O)c1cc(NC2=NCC(F)CN2)c2cn[nH]c2c1)c1cc(OC(F)F)cc(OC(F)F)c1 (stereo partly drawn) [Example 30-(b), (3S)-3-(3,5-bis(difluoromethoxy)phenyl)-3-(2-(4-((5-fluoro-1,4,5,6-tetrahydropyrimidin-2-yl)amino)-1H-indazole-6-carboxamido)acetamido)propanoic acid] | < 3 | < 10
7 | O=C(O)C[C@H](NC(=O)CNC(=O)c1cc(NC2=NCC(F)CN2)c2cn[nH]c2c1)c1cc(Cl)cc(OC(F)(F)F)c1 (stereo partly drawn) [Example 31-(b), (3S)-3-(3-chloro-5-(trifluoromethoxy)phenyl)-3-(2-(4-((5-fluoro-1,4,5,6-tetrahydropyrimidin-2-yl)amino)-1H-indazole-6-carboxamido)acetamido)propanoic acid] | 3 to 10 | < 10
8 | O=C(O)C[C@H](NC(=O)CNC(=O)c1cc(NC2=NCC(F)CN2)c2cn[nH]c2c1)c1cc(Br)cc(OC(F)(F)F)c1 (stereo partly drawn) [Example 32-(b), (3S)-3-(3-bromo-5-(trifluoromethoxy)phenyl)-3-(2-(4-((5-fluoro-1,4,5,6-tetrahydropyrimidin-2-yl)amino)-1H-indazole-6-carboxamido)acetamido)propanoic acid] | < 3 | 10 to 50
9 | O=C(O)C[C@H](NC(=O)CNC(=O)c1cc(NC2=NCC(F)CN2)c2cn[nH]c2c1)c1cc(OC(F)(F)F)ccc1F (stereo partly drawn) [Example 33-(b), (3S)-3-(2-(4-((5-fluoro-1,4,5,6-tetrahydropyrimidin-2-yl)amino)-1H-indazole-6-carboxamido)acetamido)-3-(2-fluoro-5-(trifluoromethoxy)phenyl)propanoic acid] | < 3 | 10 to 50
10 | O=C(O)C[C@H](NC(=O)CNC(=O)c1cc(NC2=NCC(F)CN2)c2cn[nH]c2c1)c1ccc(F)c(OC(F)(F)F)c1 (stereo partly drawn) [Example 34-(b), (3S)-3-(2-(4-((5-fluoro-1,4,5,6-tetrahydropyrimidin-2-yl)amino)-1H-indazole-6-carboxamido)acetamido)-3-(4-fluoro-3-(trifluoromethoxy)phenyl)propanoic acid] | < 3 | 10 to 50
11 | O=C(O)C[C@H](NC(=O)CNC(=O)c1cc(NC2=NCC(F)CN2)c2cn[nH]c2c1)c1cccc(C(F)(F)F)c1 (stereo partly drawn) [Example 35-(b), (3S)-3-(2-(4-((5-fluoro-1,4,5,6-tetrahydropyrimidin-2-yl)amino)-1H-indazole-6-carboxamido)acetamido)-3-(3-(trifluoromethyl)phenyl)propanoic acid] | 3 to 10 | < 10
12 | O=C(O)C[C@H](NC(=O)CNC(=O)c1cc(NC2=NCC(F)CN2)c2cn[nH]c2c1)c1cccc(OC(F)(F)F)c1 (stereo partly drawn) [Example 36-(b), (3S)-3-(2-(4-((5-fluoro-1,4,5,6-tetrahydropyrimidin-2-yl)amino)-1H-indazole-6-carboxamido)acetamido)-3-(3-(trifluoromethoxy)phenyl)propanoic acid] | 3 to 10 | 10 to 50
13 | O=C(O)C[C@H](NC(=O)CNC(=O)c1cc(NC2=NCC(F)CN2)c2cn[nH]c2c1)c1cccc(OC(F)F)c1 (stereo partly drawn) [Example 37-(b), (3S)-3-(3-(difluoromethoxy)phenyl)-3-(2-(4-((5-fluoro-1,4,5,6-tetrahydropyrimidin-2-yl)amino)-1H-indazole-6-carboxamido)acetamido)propanoic acid] | 3 to 10 | 10 to 50
14 | O=C(O)C[C@H](NC(=O)CNC(=O)c1cc(NC2=NCC(F)CN2)c2cn[nH]c2c1)c1cccc(C(F)F)c1 (stereo partly drawn) [Example 38-(b), (3S)-3-(3-(difluoromethyl)phenyl)-3-(2-(4-((5-fluoro-1,4,5,6-tetrahydropyrimidin-2-yl)amino)-1H-indazole-6-carboxamido)acetamido)propanoic acid] | < 3 | < 10
15 | O=C(O)C[C@H](NC(=O)CNC(=O)c1cc(NC2=NCC(F)CN2)c2cn[nH]c2c1)c1cccc(C2CC2)c1 (stereo partly drawn) [Example 39-(b), (3S)-3-(3-cyclopropylphenyl)-3-(2-(4-((5-fluoro-1,4,5,6-tetrahydropyrimidin-2-yl)amino)-1H-indazole-6-carboxamido)acetamido)propanoic acid] | < 3 | < 10
